Experimental findings from patent US20260315446A1, “ANTIFUNGAL COMPOUNDS AND USES THEREOF” (priority 2023, published 2026) are described below.

Converted amounts (≈) assume the structure as drawn. “Also recorded” adds a separate entry of the source. Read-outs that look alike come from different tables or passages of the source.

Series [1] deals with IL-2 expression in primary murine CD4+ T cells. The experiment in a line: In vitro immunosuppressive activity, IL-2 expression (Example 4). The format is cell-based, mouse. The conditions noted are these: Mus musculus, CD4+ T. As for the experimental part:
Spleen and lymph nodes were collected from C57BL/6 mice and homogenized through a 40 μm filter. Pan-CD4^+ T cells were enriched using MagniSort Mouse CD4 T cell Kit (eBioscience) according to the manufacturer's protocol. Thereafter, CD4+CD25−CD44lo CD62Lhi naïve T cells were FACS-sorted. The naïve CD4+ T cells were grown in Iscove's Modified Dulbecco's Medium (IMDM) supplemented with glutamine, penicillin, streptomycin, gentamicin, 2-mercaptoethanol, and 10% FBS. Cells were then cultured on anti-hamster IgG coated plates in the presence of hamster anti-CD3 epsilon and anti-CD28 antibodies (BD Biosciences), neutralizing anti-IL-4 antibody (eBioscience), recombinant IL-12 (10 ng/mL), and recombinant IL-2 (50 U/mL) for 72 h. During this period, cells were grown in the presence of 2× serially diluted FK506, FK520, or analog suspended in DMSO for 72 h. During the last 4 h of culture, phorbol 12-myristate 13-acetate (PMA; Sigma), ionomycin (Sigma), and GolgiStop (BD Biosciences) were added to the culture to facilitate detection of intracellular cytokines via flow cytometry.
Live cells were stained with FITC-conjugated anti-CD4 antibody (eBioscience) and Fixable Viability Dye eFluor 506 (eBioscience) on ice, followed by fixation and permeabilization using the Foxp3 Transcription Factor Staining Kit (eBioscience). Intracellular staining was performed at room temperature using PE-conjugated anti-IL-2 antibody (eBioscience), followed by analysis with a BD LSRFortessa X-20 flow cytometer.

The next series concerns C. neoformans. The experiment in a line: MIC assay (Example 4). The format is cell-based, Cryptococcus neoformans. The conditions noted are these: 37° C.; for MIC: Cryptococcus neoformans, read-out: C. neoformans MIC. As for the experimental part: Both JH-FK-10 and JH-FK-11 maintained in vitro antifungal activity against C. neoformans with MICs of 0.8 and 1.6 μg/mL, respectively (Table 11).
In vitro antifungal activity of FK506, FK520, and analogs was assessed in RPMI 1640 (Sigma-Aldrich) for all strains tested. Minimum inhibitory concentrations (MIC) for each drug were measured using modified Clinical and Laboratory Standards Institute (CLSI) M38-A2 and M27-A3 standard in vitro antifungal susceptibility protocols. Broth microdilution assays for MIC assessment were performed as previously described. All antifungal assays with C. neoformans were performed at 37° C.

Series [2] concerns IL-2 expression in primary murine CD4+ T cells. The experiment in a line: In vitro immunosuppressive activity, IL-2 expression (Example 1). The format is cell-based, mouse. Conditions: for IC50: Mus musculus, CD4+ T, 72 h, PMA and ionomycin stimulation, read-out: IL-2 50% inhibitory concentration (IC50). As for the experimental part: The potent immunosuppressive activity of FK506 and FK520 is what precludes these highly antifungal compounds from being utilized clinically to treat invasive fungal infections. Therefore, it is essential to understand the level of immunosuppressive activity for each of these analogs to determine if these C-22 modifications improve the fungal selectivity. Utilizing a primary murine T-cell model, IL-2 expression was assessed following growth in the presence of calcineurin inhibitors (FIG. 6A). Naive, primary CD4^+ T cells were collected from mice and grown for 72 h in the presence of FK506, FK520, or an analog. Following stimulation with phorbol 12-myristate 13-acetate (PMA) and ionomycin, the proportion of cells producing IL-2, a key calcineurin-dependent cytokine, was measured with flow cytometry. All compounds generated a dose-dependent reduction in IL-2 production.
Spleen and lymph nodes were collected from C57BL/6 mice and homogenized through a 40-μm filter. Pan-CD4^+ T cells were enriched using a MagniSort mouse CD4 T-cell kit (eBioscience) according to the manufacturer's protocol. Thereafter, CD4^+CD25^− CD44^loCD62L^hi naive T cells were sorted by fluorescence-activated cell sorting (FACS). The naive CD4^+ T cells were grown in Iscove's modified Dulbecco's medium (IMDM) supplemented with glutamine, penicillin, streptomycin, gentamicin, 2-mercaptoethanol, and 10% fetal bovine serum (FBS). Cells were then cultured on anti-hamster IgG-coated plates in the presence of hamster anti-CD3 epsilon and anti-CD28 antibodies (BD Biosciences), neutralizing anti-IL-4 antibody (eBioscience), recombinant IL-12 (10 ng/mL), and recombinant IL-2 (50 U/mL) for 72 h. During this period, cells were grown in the presence of 2× serially diluted FK506, FK520, or analog suspended in DMSO for 72 h. During the last 4 h of culture, phorbol 12-myristate 13-acetate (PMA; Sigma), ionomycin (Sigma), and GolgiStop (BD Biosciences) were added to the culture to facilitate detection of intracellular cytokines via flow cytometry. Live cells were stained with fluorescein isothiocyanate (FITC)-conjugated anti-CD4 antibody (eBioscience) and fixable viability dye eFluor 506 (eBioscience) on ice, followed by fixation and permeabilization using the Foxp3 transcription factor staining kit (eBioscience). Intracellular staining was performed at room temperature using phycoerythrin (PE)-conjugated anti-IL-2 antibody (eBioscience), followed by analysis with a BD LSRFortessa X-20 flow cytometer.

For series [3], the system named is germinal center (GC) B cells. The experiment in a line: In vivo immunosuppression, germinal center B cells (Example 1). Further details: species or system mouse (C57BL/6). Conditions: daily i.p., FK506 5 mg/kg or JH-FK-05 60 mg/kg; day 7. As for the experimental part: Based on the in vitro evidence of reduced immunosuppressive activity of JH-FK-05, it was hypothesized that this reduction would translate into reduced immunosuppression in an in vivo model. The murine model for immunosuppression measures the T cell-dependent proliferation of two immune cell subtypes in response to immunization with an antigen. Animals were treated daily via intraperitoneal (i.p.) injection with vehicle, 5 mg/kg FK506, or 60 mg/kg JH-FK-05, beginning on day −1 and ending on day 7. […] On day 0, animals were immunized with NP-OVA to stimulate T cell-dependent signaling that would result in proliferation of T follicular helper (Tfh) cells and germinal center (GC) B cells. Animals were sacrificed on day 7, and the proportions of Tfh and GC B cells in the lymph nodes were measured. […]
Groups of 6 female C57BL/6 mice (Jackson Laboratory) were treated daily by intraperitoneal (i.p.) injection with about 100 μL vehicle, 5 mg/kg FK506, or 60 mg/kg JH-FK-05 beginning on day −1. […] Mice were treated and monitored daily until they were sacrificed on day 7. Draining lymph nodes were harvested on day 7, and the populations of T follicular helper cells and GC B cells were analyzed by flow cytometry. Tfh and GC B cells were measured from T Cell Receptor β (TCRβ^+) CD4^+CD44^hi cells and TCRβ^−CD19^+ cells, respectively.

Regarding `C=CCC1C=C(C)CC(C)CC(OC)C2OC(O)(C(=O)C(=O)N3CCCCC3C(=O)OC(C(C)=CC3CCC(O)C(OC)C3)C(C)C(O)CC1=O)C(C)CC2OC` (centres unmarked) [FK506, reference compound], the IC50 in series [1] (Table 12) was 0.11 nM. The MIC in the series with C. neoformans (Table 11), in the series on C. neoformans (Table 12) and with C. neoformans (Table 13) was 0.05 µg/mL (≈ 0.0622 µM) each time. The “IL-2 inhibition / immunosuppression” value in series [2] is reported as “highest level of IL-2 inhibition”. Besides, the “proliferation/presence of GC B cells” value in series [3] was “significantly reduced the proliferation”.
Compound `CC[C@@H]1/C=C(\C)C[C@H](C)C[C@H](OC)[C@H]2O[C@@](O)(C(=O)C(=O)N3CCCC[C@H]3C(=O)O[C@H](/C(C)=C/[C@@H]3CC[C@@H](O)[C@H](OC)C3)[C@H](C)[C@@H](O)CC1=O)[C@H](C)C[C@@H]2OC` [FK520, reference compound] had an IC50 in series [1] (Table 12) of 0.48 nM. Moreover, the “C. neoformans MIC” value in the series with C. neoformans (Table 11), in the series with C. neoformans (Table 12) and in the series on C. neoformans (Table 13) was 0.05 µg/mL each time. The “IL-2 inhibition / immunosuppression” value in series [2] is given as “highest level of IL-2 inhibition; also recorded: slightly reduced compared to that of FK506”.
On to `C=CC[C@@H]1/C=C(\C)C[C@H](C)C[C@H](OC)[C@H]2O[C@@](O)(C(=O)C(=O)N3CCCC[C@H]3C(=O)O[C@H](/C(C)=C/[C@@H]3CC[C@@H](O)[C@H](OC)C3)[C@H](C)[C@@H](O)C/C1=N/NC(=O)CC)[C@H](C)C[C@@H]2OC` [JH-FK-02], for which the IC50 in series [2] came to 42.6 nM. In addition, in series [2] (relative to FK506), the “fold increase of IL-2 IC50 / reduction of immunosuppression compared to FK506” value is given as > 380 fold.
Take `CC[C@@H]1/C=C(\C)C[C@H](C)C[C@H](OC)[C@H]2O[C@@](O)(C(=O)C(=O)N3CCCC[C@H]3C(=O)O[C@H](/C(C)=C/[C@@H]3CC[C@@H](O)[C@H](OC)C3)[C@H](C)[C@@H](O)C/C1=N/NC(C)=O)[C@H](C)C[C@@H]2OC` [JH-FK-05]: the IC50 in series [1] (Table 13) and in series [2] was 20 nM each time. Moreover, in the series on C. neoformans (Table 13), the minimum inhibitory concentration (MIC) was determined as 1 µg/mL (≈ 1.18 µM). In addition, in series [3], the “proliferation/presence of GC B cells” value was “did not reduce the presence of either cell type and was statistically indistinguishable from the vehicle treatment”.

As a reminder, the MIC is the lowest concentration that inhibits growth of the organism.
